Values after ≈ are worked out from the molar mass of the structure shown. One block for each compound: values may come before it.
Experiments:
Mus musculus [1] = assay: Antitumor activity of 26.7 mg/kg of perorally administered compound against B16 melanoma BL6 cells implanted into mice, value reported is percent compared to control; assay type: functional; conditions: route oral
Mus musculus [2] = assay: Number of mice died at 17.8 mg/kg of intravenous dose among the total 6 mice tested; assay type: functional
Mus musculus [3] = assay: Number of mice died at 11.9 mg/kg of peroral dose, among the total 6 mice tested; assay type: functional; conditions: route oral
Mus musculus [4] = assay: Maximum rate of body weight loss after intravenous administration of 11.9 mg/kg of compound in mice; assay type: functional
Mus musculus [5] = assay: Number of mice died at 26.7 mg/kg of peroral dose of compound among the total 6 mice tested; assay type: functional; conditions: route oral
P388 = assay: Concentration required to inhibit mouse P388 cell line growth by 50% at 72 hr continuous exposure; assay type: functional; conditions: P388, 72 h
Mus musculus [6] = assay: Antitumor activity of 7.9 mg/kg of perorally administered compound against B16 melanoma BL6 cells implanted into mice, value reported is percent compared to control; assay type: functional; conditions: route oral
Mus musculus [7] = assay: Maximum rate of body weight loss after peroral administration of 11.9 mg/kg of compound in mice; <0 indicates no body weight loss; assay type: functional; conditions: route oral
Mus musculus [8] = assay: Number of mice died at 11.9 mg/kg of intravenous dose, among the total 6 mice tested; assay type: functional
Mus musculus [9] = assay: Number of mice died at 7.9 mg/kg of peroral dose of compound among the total 6 mice tested; assay type: functional; conditions: route oral
PC-6 [10] = assay: Concentration required to inhibit human PC-6/VP1-1 cell line growth by 50% at 72 hr exposure; assay type: functional; conditions: PC-6, 72 h
Mus musculus [11] = assay: Number of mice died at 17.8 mg/kg of peroral dose among the total 6 mice tested; assay type: functional; conditions: route oral
PC-12 = assay: Concentration required to inhibit human PC-12 cell line growth by 50% at 72 hr continuous exposure; assay type: functional; conditions: PC-12, 72 h
Mus musculus [12] = assay: Antitumor activity of 17.8 mg/kg of intravenously administered compound against B16 melanoma BL6 cells implanted into mice, value reported is percent compared to control; assay type: functional; conditions: route intravenous
Mus musculus [13] = assay: Number of mice died at 7.9 mg/kg of intravenous dose of compound among the total 6 mice tested; assay type: functional
PC-6 [14] = assay: Concentration required to inhibit human PC-6/VCR29-9 cell line growth by 50% at 72 hr exposure; assay type: functional; conditions: PC-6, 72 h
PC-6 [15] = assay: Concentration required to inhibit human PC-6 cell line growth by 50% at 72 hr continuous exposure; assay type: functional; conditions: PC-6, 72 h
B16 [16] = assay: Antitumor activity of 11.9 mg/kg of perorally administered compound against B16 melanoma BL6 cells implanted into mice, value reported is percent compared to control; assay type: functional, Mus musculus; conditions: route oral
B16 [17] = assay: Antitumor activity of 17.8 mg/kg of perorally administered compound against B16 melanoma BL6 cells implanted into mice, value reported is percent compared to control; assay type: functional, Mus musculus; conditions: route oral
Mus musculus [18] = assay: Maximum rate of body weight loss after peroral administration of 7.9 mg/kg of compound in mice; <0 indicates no body weight loss; assay type: functional; conditions: route oral
Mus musculus [19] = assay: Number of mice died at 26.7 mg/kg of intravenous dose of compound among the total 6 mice tested; assay type: functional
Mus musculus [20] = assay: Effective dose of intravenously administered compound against B16 melanoma BL6 cells implanted into mice; range is 7.9-17.8; assay type: functional; conditions: B16, iv
Mus musculus [21] = assay: Maximum rate of body weight loss after peroral administration of 26.7 mg/kg of compound in mice; assay type: functional; conditions: route oral
Mus musculus [22] = assay: Effective dose of perorally administered compound against B16 melanoma BL6 cells implanted into mice; range is 7.9-17.8; assay type: functional; conditions: B16, po
Mus musculus [23] = assay: Maximum rate of body weight loss after peroral administration of 17.8 mg/kg of compound in mice; assay type: functional; conditions: route oral
Mus musculus [24] = assay: Maximum rate of body weight loss after intravenous administration of 17.8 mg/kg of compound in mice; assay type: functional
Mus musculus [25] = assay: Maximum rate of body weight loss after intravenous administration of 7.9 mg/kg of compound in mice; <0 indicates no weight loss; assay type: functional
Mus musculus [26] = assay: Antitumor activity of 7.9 mg/kg of intravenously administered compound against B16 melanoma BL6 cells implanted into mice, value reported is percent compared to control; assay type: functional; conditions: route intravenous
B16 [27] = assay: Antitumor activity of 11.9 mg/kg of intravenously administered compound against B16 melanoma BL6 cells implanted into mice, value reported is percent compared to control; assay type: functional, Mus musculus; conditions: route intravenous
PC-6 [28] = assay: Concentration required to inhibit human PC-6/VCR29-9 cell line growth by 50% at 72 hr of exposure; assay type: functional; conditions: PC-6, 72 h
PC-6 [29] = assay: Concentration that inhibited the growth of PC-6/VCR29-9 cells by 50% at 72 hr continuous exposure; assay type: functional; conditions: Homo sapiens, PC-6, 72 h
B16 [30] = assay: Effective dose of intravenously administered compound against B16 melanoma BL6 cells implanted into mice; assay type: functional; conditions: Mus musculus, B16, iv
B16 [31] = assay: Effective dose of perorally administered compound against B16 melanoma BL6 cells implanted into mice; assay type: functional; conditions: Mus musculus
Mus musculus [32] = assay: Number of mice died at 40.0 mg/kg of peroral dose of compound among the total 6 mice tested; assay type: functional; conditions: route oral
Mus musculus [33] = assay: Maximum rate of body weight loss after intravenous administration of 7.9 mg/kg of compound in mice; assay type: functional
Mus musculus [34] = assay: Antitumor activity of 26.7 mg/kg of intravenously administered compound against B16 melanoma BL6 cells implanted into mice, value reported is percent compared to control; assay type: functional; conditions: route intravenous
Mus musculus [35] = assay: Maximum rate of body weight loss after intravenous administration of 26.7 mg/kg of compound in mice; assay type: functional
Mus musculus [36] = assay: Maximum rate of body weight loss after intravenous administration of 11.9 mg/kg of compound in mice; <0 indicates no weight loss; assay type: functional
Mus musculus [37] = assay: Maximum rate of body weight loss after peroral administration of 11.9 mg/kg of compound in mice; <0 indicates no weight loss; assay type: functional; conditions: route oral
Mus musculus [38] = assay: Effective dose of perorally administered compound against B16 melanoma BL6 cells implanted into mice; range is 11.9-26.7; assay type: functional; conditions: B16, po

Structure (SMILES): CC(=O)O[C@@]12CO[C@@H]1CC[C@@]1(C)[C@@H]3O[C@H](CN(C)C)O[C@@H]3C3=C(C)[C@@H](OC(=O)[C@H](O)[C@@H](NC(=O)OC(C)(C)C)c4ccccn4)C[C@@](O)([C@@H](OCc4ccccc4)[C@@H]12)C3(C)C
- IR (Mus musculus [1]): 97.5%
- Mortality (Mus musculus [2]): 0
- Mortality (Mus musculus [3]): 0
- BWLmax (Mus musculus [4]): 1%
- Mortality (Mus musculus [5]): 1
- GI50 (P388): 0.41 ng/mL (≈ 0.482 nM)
- IR (Mus musculus [6]): 72.8%
- BWLmax (Mus musculus [7]): <0%
- Mortality (Mus musculus [8]): 0
- Mortality (Mus musculus [9]): 0
- GI50 (PC-6 [10]): 54.2 ng/mL (≈ 63.8 nM)
- Mortality (Mus musculus [11]): 0
- GI50 (PC-12): 0.74 ng/mL (≈ 0.871 nM)
- IR (Mus musculus [12]): 97.7%
- Mortality (Mus musculus [13]): 0
- GI50 (PC-6 [14]): 4.04 ng/mL (≈ 4.75 nM)
- GI50 (PC-6 [15]): 0.38 ng/mL (≈ 0.447 nM)
- IR (B16 [16]): 88.8%
- IR (B16 [17]): 97%
- BWLmax (Mus musculus [18]): <0%
- Mortality (Mus musculus [19]): 6
- ED50 (Mus musculus [20]): 17.8 mg/kg
- BWLmax (Mus musculus [21]): 13.1%
- ED50 (Mus musculus [22]): 17.8 mg/kg
- BWLmax (Mus musculus [23]): 8.8%
- BWLmax (Mus musculus [24]): 8.6%
- BWLmax (Mus musculus [25]): <0%
- IR (Mus musculus [26]): 82.3%
- IR (B16 [27]): 95%

Structure (SMILES): CC(=O)O[C@@]12CO[C@@H]1CC[C@@]1(C)[C@@H]3O[C@H](CN4CCOCC4)O[C@@H]3C3=C(C)[C@@H](OC(=O)[C@H](O)[C@@H](NC(=O)OC(C)(C)C)c4nccs4)C[C@@](O)([C@@H](OCc4ccccc4)[C@@H]12)C3(C)C
- Mortality (Mus musculus [32]): 6
- BWLmax (Mus musculus [33]): 1.5%
- IR (Mus musculus [1]): 97.8%
- Mortality (Mus musculus [2]): 0
- Mortality (Mus musculus [3]): 0
- IR (Mus musculus [34]): 98.3%
- Mortality (Mus musculus [5]): 0
- GI50 (P388): 0.06 ng/mL (≈ 0.0668 nM)
- BWLmax (Mus musculus [35]): 15%
- BWLmax (Mus musculus [36]): <0%
- Mortality (Mus musculus [8]): 0
- GI50 (PC-6 [10]): 19.7 ng/mL (≈ 21.9 nM)
- Mortality (Mus musculus [11]): 0
- GI50 (PC-12): 0.13 ng/mL (≈ 0.145 nM)
- IR (Mus musculus [12]): 96.9%
- Mortality (Mus musculus [13]): 0
- GI50 (PC-6 [14]): 1.37 ng/mL (≈ 1.53 nM)
- BWLmax (Mus musculus [37]): <0%
- GI50 (PC-6 [15]): 0.12 ng/mL (≈ 0.134 nM)
- IR (B16 [16]): 77.9%
- IR (B16 [17]): 97%
- Mortality (Mus musculus [19]): 2
- ED50 (Mus musculus [20]): 17.8 mg/kg
- BWLmax (Mus musculus [21]): 10%
- ED50 (Mus musculus [38]): 26.7 mg/kg
- BWLmax (Mus musculus [23]): 8.8%
- BWLmax (Mus musculus [24]): 7.1%
- IR (Mus musculus [26]): 79.1%
- IR (B16 [27]): 85.7%

Structure (SMILES): CC(=O)O[C@@]12CO[C@@H]1CC[C@@]1(C)[C@@H]3O[C@H](CN(C)C)O[C@@H]3C3=C(C)[C@@H](OC(=O)[C@H](O)[C@@H](NC(=O)OC(C)(C)C)c4cscn4)C[C@@](O)([C@@H](OCc4ccccc4)[C@@H]12)C3(C)C
- GI50 (P388): 0.06 ng/mL (≈ 0.0701 nM)
- GI50 (PC-6 [29]): 1.1 ng/mL (≈ 1.28 nM)
- GI50 (PC-6 [10]): 17.3 ng/mL (≈ 20.2 nM)
- GI50 (PC-12): 0.19 ng/mL (≈ 0.222 nM)
- GI50 (PC-6 [15]): 0.35 ng/mL (≈ 0.409 nM)

Structure (SMILES): CC(=O)O[C@@]12CO[C@@H]1CC[C@@]1(C)[C@@H]3O[C@H](CN4CCOCC4)O[C@@H]3C3=C(C)[C@@H](OC(=O)[C@H](O)[C@@H](NC(=O)OC(C)(C)C)c4ccc(F)cn4)C[C@@](O)([C@@H](OCc4ccccc4)[C@@H]12)C3(C)C
- ED50 (B16 [30]): 3.5 mg/kg
- ED50 (B16 [31]; B16, po): 7.9 mg/kg

The next lines start with results.

- GI50 (P388): 2.93 ng/mL (≈ 3.49 nM)
Structure (SMILES): CC(=O)O[C@H]1C(=O)[C@@]2(C)[C@H]([C@H](OCc3ccccc3)[C@]3(O)C[C@H](OC(=O)[C@H](O)[C@@H](NC(=O)c4ccccc4)c4ccccc4)C(C)=C1C3(C)C)[C@]1(OC(C)=O)CO[C@@H]1C[C@@H]2O
- GI50 (PC-6 [10]): 1000 ng/mL (≈ 1190 nM)
- GI50 (PC-12): 539 ng/mL (≈ 642 nM)
- GI50 (PC-6 [28]): 455 ng/mL (≈ 542 nM)
- GI50 (PC-6 [15]): 1.27 ng/mL (≈ 1.51 nM)

- GI50 (P388): 0.04 ng/mL (≈ 0.0445 nM)
Structure (SMILES): CC(=O)O[C@@]12CO[C@@H]1CC[C@@]1(C)[C@@H]3O[C@H](CN4CCOCC4)O[C@@H]3C3=C(C)[C@@H](OC(=O)[C@H](O)[C@@H](NC(=O)OC(C)(C)C)c4cncs4)C[C@@](O)([C@@H](OCc4ccccc4)[C@@H]12)C3(C)C
- GI50 (PC-6 [29]): 0.66 ng/mL (≈ 0.735 nM)
- ED50 (B16 [30]): 7.9 mg/kg
- GI50 (PC-6 [10]): 20.5 ng/mL (≈ 22.8 nM)
- GI50 (PC-12): 0.12 ng/mL (≈ 0.134 nM)
- GI50 (PC-6 [15]): 0.07 ng/mL (≈ 0.0779 nM)
- ED50 (B16 [31]): None

- GI50 (P388): 0.73 ng/mL (≈ 0.881 nM)
Structure (SMILES): CC(=O)O[C@@]12CO[C@@H]1CC[C@@]1(C)[C@@H]3O[C@H](CN(C)C)O[C@@H]3C3=C(C)[C@@H](OC(=O)[C@H](O)[C@@H](NC(=O)OC(C)(C)C)C(C)(C)C)C[C@@](O)([C@@H](OCc4ccccc4)[C@@H]12)C3(C)C
- ED50 (B16 [30]): 11.9 mg/kg
- GI50 (PC-6 [10]): 15.7 ng/mL (≈ 18.9 nM)
- GI50 (PC-12): 0.5 ng/mL (≈ 0.603 nM)
- GI50 (PC-6 [14]): 1.42 ng/mL (≈ 1.71 nM)
- GI50 (PC-6 [15]): 0.67 ng/mL (≈ 0.808 nM)
- ED50 (B16 [31]; B16, po): 11.9 mg/kg
